Among the data in patent US20240217963A1, “RECEPTOR-INTERACTING PROTEIN 1 INHIBITORS, PREPARATIONS, AND USES THEREOF” (SIRONAX LTD., priority 2021, published 2024) are EC50 values, retold here.

The experiment has as its target T1, RIP1 (Homo sapiens, UniProt Q13546).
T1 sequence (Q13546 1-671): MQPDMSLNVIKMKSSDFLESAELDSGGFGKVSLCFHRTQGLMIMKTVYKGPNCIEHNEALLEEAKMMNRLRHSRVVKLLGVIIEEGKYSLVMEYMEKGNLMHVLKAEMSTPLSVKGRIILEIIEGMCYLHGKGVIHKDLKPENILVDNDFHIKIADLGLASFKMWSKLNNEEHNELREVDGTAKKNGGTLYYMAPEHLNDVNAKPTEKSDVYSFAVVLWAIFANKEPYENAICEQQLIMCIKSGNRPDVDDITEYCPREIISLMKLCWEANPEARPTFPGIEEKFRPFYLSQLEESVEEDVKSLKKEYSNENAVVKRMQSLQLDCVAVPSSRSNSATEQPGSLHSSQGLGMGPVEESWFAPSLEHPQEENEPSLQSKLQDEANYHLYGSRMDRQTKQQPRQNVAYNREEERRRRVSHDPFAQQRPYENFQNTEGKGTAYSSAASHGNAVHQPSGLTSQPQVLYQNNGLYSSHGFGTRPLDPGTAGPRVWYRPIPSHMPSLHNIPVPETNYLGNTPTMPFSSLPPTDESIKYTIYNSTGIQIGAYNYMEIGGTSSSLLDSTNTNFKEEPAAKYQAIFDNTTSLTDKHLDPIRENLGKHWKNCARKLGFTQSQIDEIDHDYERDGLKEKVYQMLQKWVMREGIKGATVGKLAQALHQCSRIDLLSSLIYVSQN
The experiment can be described thus: Cellular RIP1 inhibitory activity: HT-29 necroptosis (TNFα/SMAC mimetic/zVAD-FMK) CellTiter-Glo viability assay. It is filed as cell-based. The note with it: HT-29 cells, TNF-α 10 ng/ml + SMAC mimetic 6 μM + zVAD-FMK 10 μM, 20 hours, geometric mean, read-out: EC50 Values of in vitro Cellular RIP1 Inhibitory Activity. As to the method: Compounds 1-99 (denoted as Cmpd Nos. 1 through 99 in Table 2 below) of the disclosure were tested for binding and cellular RIP1 inhibitory activity following the experimental procedures described below. Cell Seeding • 1. HT-29 cells were checked every day to make sure that they were healthy and growing as expected. They were subjected to sub-culturing when they were approximately 80% confluent. • 2. The culture medium, McCOY's 5 A medium (Gibco, Cat No. 16600-082) with 10% fetal bovine serum or FBS (Gibco, Cat No. 10099-141C), was pre-warmed in a 37° C. water bath for at least 30 min. • 3. When the cells had reached a desired level of confluency of 80% in a T75 flask, the medium was aspirated, and the cells were washed with warm phosphate buffered saline or PBS two times. • 4. 2-3 ml fresh warm trypsin (Gibco, Cat No. 25200-056) solution was added to the washed cells. The flask with the cells was transferred to a 37° C. incubator. • 5. After 5 minutes, the side of the flask was tapped, and the flask was examined under a microscope for detachment of the cells to the flask. If necessary, the cells were kept in the incubator for an additional 5-10 minutes, with occasional tapping, until lifting was complete. • 6. The trypsin reaction was neutralized by transferring 6-9 ml cell culture medium to sterile 15 ml conical tubes, and by centrifuging the cell culture at 300×g for 7 minutes to pellet the cells (supernatant decanted). • 7. The cells were resuspended in fresh cell culture medium and the cell counting was performed using a hemocytometer. • 8. 100 μl of the resuspended cell culture medium containing ˜5,000 cells were transferred into each well of the sterile 96-well cell culture plate (Corning 3903) and cultured overnight at 37° C. with 5% CO2. Compound Titration and Treatment • 1. All test compounds were dissolved in DMSO (Dimethyl sulfoxide) to create a 20 mM stock. • 2. 3 μl of each compound 20 mM stock was mixed with 27 μl DMSO, and the compound solution was further diluted at a titration ratio of 1:3 (20 μl compound solution+40 μl DMSO) till the 10 points end. • 3. All culture medium was removed from assay plates filled with HT-29 cell cultures. […] 0.5 μL of the diluted compound solution was added to the corresponding 96-well assay plates. • 5. The assay plates were incubated for 20 hours at 37° C. with 5% CO2. Cell Viability Detection • 1. The CellTiter-Glo® Luminescent Cell Viability Assay was employed to detect the ATP levels of viable HT-29 cells. • 2. The CellTiter-Glo® buffer and the lyophilized substrate were equilibriated to room temperature prior to use. • 3. The CellTiter-Glo® substrate was resuspended with CellTiter-Glo® buffer, then mixed by gently vortexing to obtain a homogeneous solution. • 4. 20 μl the enzyme/substrate mixture was transferred by multi-channel pipetting into 96-well assay plates. • 5. The assay plates were placed on an orbital shaker and the contents were shaken for 3 minutes to induce cell lysis. • 6. The assay plates were incubated at room temperature for 10 minutes to stabilize the luminescent signal. • 7. The luminescence signals were read and recorded with EnVision. • 8. The geometric mean EC50 values were calculated from 10 points response dose with duplicates. In Table 2, activity is provided as follows: +++=0.1 nM≤EC50<100 nM; ++=100 nM≤EC50<1000 nM; +=1000 nM≤EC50<10000 nM.

In general, EC50 refers to the concentration that produces a half-maximal response. On to `Cc1nnc(CN(C)C(=O)C2CCN(c3ncc(F)c(-c4c(C)cnn4C)n3)CC2)s1` [Compound 87, 1-(4-(1,4-dimethyl-1H-pyrazol-5-yl)-5-fluoropyrimidin-2-yl)-N-methyl-N-((5-methyl-1,3,4-thiadiazol-2-yl)methyl)piperidine-4-carboxamide], for which the half-maximal effective concentration (EC50) lay in the range of 100 to 1000 nM.

Turning to `Cc1cnn(C)c1-c1nc(N2CCC(C(=O)N(C)Cc3ccn(C)n3)CC2)ncc1F` [Compound 81, 1-(4-(1,4-dimethyl-1H-pyrazol-5-yl)-5-fluoropyrimidin-2-yl)-N-methyl-N-((1-methyl-1H-pyrazol-3-yl)methyl)piperidine-4-carboxamide], the EC50 lay in the range of 0.1 to 100 nM.

`Cc1nc(C)n(-c2nc(N3CCC(C(=O)NCc4cc(F)cc(F)c4)CC3)ncc2F)n1` [Compound 2, N-(3,5-difluorobenzyl)-1-(4-(3,5-dimethyl-1H-1,2,4-triazol-1-yl)-5-fluoropyrimidin-2-yl)piperidine-4-carboxamide]: the EC50 lay in the range of 0.1 to 100 nM.

Take `Cc1cnn(C)c1-c1nc(N2CCC(C(=O)N(O)Cc3cncc(F)c3)CC2)ncc1F` [Compound 37, 1-(4-(1,4-dimethyl-1H-pyrazol-5-yl)-5-fluoropyrimidin-2-yl)-N-((5-fluoropyridin-3-yl)methyl)-N-hydroxypiperidine-4-carboxamide]: the EC50 was 0.1 to 100 nM.

For the compound `Cc1cnn(C)c1-c1nc(N2CCC(C(=O)N(O)Cc3cnsc3)CC2)ncc1F` [Compound 51], the EC50 is 0.1 to 100 nM.

As for `Cc1cnn(C)c1-c1nc(N2CCC(C(=O)N(O)Cc3ccccc3)CC2)ncc1F` [Compound 33, N-benzyl-1-(4-(1,4-dimethyl-1H-pyrazol-5-yl)-5-fluoropyrimidin-2-yl)-N-hydroxypiperidine-4-carboxamide], the EC50 lay within 0.1 to 100 nM.

Turning to `Cc1nc(C)n(-c2nc(N3CCC(F)(C(=O)N(O)Cc4cc(F)cc(F)c4)CC3)ncc2F)n1` [Compound 14, N-(3,5-difluorobenzyl)-1-(4-(3,5-dimethyl-1H-1,2,4-triazol-1-yl)-5-fluoropyrimidin-2-yl)-4-fluoro-N-hydroxypiperidine-4-carboxamide], the EC50 fell in the range of 0.1 to 100 nM.

For `[2H]C([2H])([2H])N(C(=O)C1CCN(c2ncc(F)c(-c3nnc(C)s3)n2)CC1)C([2H])([2H])c1cc(F)cc(F)c1F` [Compound 97, 1-(5-fluoro-4-(5-methyl-1,3,4-thiadiazol-2-yl)pyrimidin-2-yl)-N-(methyl-d3)-N-((2,3,5-trifluorophenyl)methyl-d2)piperidine-4-carboxamide], the concentration giving a half-maximal response (EC50) was 0.1 to 100 nM.

As to `Cc1cnn(C)c1-c1nc(N2CCC(C(=O)NCc3nccs3)CC2)ncc1F` [Compound 59, 1-(4-(1,4-dimethyl-1H-pyrazol-5-yl)-5-fluoropyrimidin-2-yl)-N-(thiazol-2-ylmethyl)piperidine-4-carboxamide], the concentration for a half-maximal effect (EC50) fell in the range of 100 to 1000 nM.

For the compound `Cn1ncnc1-c1nc(N2CCC(C(=O)N(O)Cc3cc(F)cc(F)c3)CC2)ncc1F` [Compound 15, N-(3,5-difluorobenzyl)-1-(5-fluoro-4-(1-methyl-1H-1,2,4-triazol-5-yl)pyrimidin-2-yl)-N-hydroxypiperidine-4-carboxamide], the EC50 fell in the range of 0.1 to 100 nM.

As for `Cc1cnn(C)c1-c1nc(N2CCC(C(=O)N(O)Cc3cncn3C)CC2)ncc1F` [Compound 40, 1-(4-(1,4-dimethyl-1H-pyrazol-5-yl)-5-fluoropyrimidin-2-yl)-N-hydroxy-N-((1-methyl-1H-imidazol-5-yl)methyl)piperidine-4-carboxamide], the EC50 lay in the range of 1000 to 10000 nM.

As to `Cc1cnn(C)c1-c1nc(N2CCC(C(=O)N(O)Cc3ncccc3F)CC2)ncc1F` [Compound 8, 1-(4-(1,4-dimethyl-1H-pyrazol-5-yl)-5-fluoropyrimidin-2-yl)-N-((3-fluoropyridin-2-yl)methyl)-N-hydroxypiperidine-4-carboxamide], the EC50 was 0.1 to 100 nM.

`Cc1cnn(C)c1-c1nc(N2CCC(C(=O)NCC3CCCCC3)CC2)ncc1F` [Compound 28, N-(cyclohexylmethyl)-1-(4-(1,4-dimethyl-1H-pyrazol-5-yl)-5-fluoropyrimidin-2-yl)piperidine-4-carboxamide]: the concentration giving a half-maximal response (EC50) was in the range of 0.1 to 100 nM.

Turning to `Cc1cnn(C)c1-c1nc(N2CCC(C(=O)N(O)Cc3nccn3C)CC2)ncc1F` [Compound 39, 1-(4-(1,4-dimethyl-1H-pyrazol-5-yl)-5-fluoropyrimidin-2-yl)-N-hydroxy-N-((1-methyl-1H-imidazol-2-yl)methyl)piperidine-4-carboxamide], the 50% effective concentration (EC50) lay in the range of 1000 to 10000 nM.

As to `CCN(Cc1cncs1)C(=O)C1CCN(c2ncc(F)c(-c3c(C)cnn3C)n2)CC1` [Compound 99, 1-(4-(1,4-dimethyl-1H-pyrazol-5-yl)-5-fluoropyrimidin-2-yl)-N-ethyl-N-(thiazol-5-ylmethyl)piperidine-4-carboxamide], the EC50 was in the range of 0.1 to 100 nM.

Take `Cc1cnn(C)c1-c1nc(N2CCC(C(=O)N(O)Cc3cncs3)CC2)ncc1F` [Compound 16, 1-(4-(1,4-dimethyl-1H-pyrazol-5-yl)-5-fluoropyrimidin-2-yl)-N-hydroxy-N-(thiazol-5-ylmethyl)piperidine-4-carboxamide]: the EC50 is 0.1 to 100 nM.

Turning to `Cc1cnn(C)c1-c1cc(OC2CC(C(=O)N(O)Cc3cc(F)cc(F)c3)C2)c(F)cn1` (stereo not shown) [Compound 53], the concentration for a half-maximal effect (EC50) lay in the range of 0.1 to 100 nM.

Consider `Cc1cnn(C)c1-c1nc(N2CCC(C(=O)NCc3cnn(C)c3)CC2)ncc1F` [Compound 45, 1-(4-(1,4-dimethyl-1H-pyrazol-5-yl)-5-fluoropyrimidin-2-yl)-N-((1-methyl-1H-pyrazol-4-yl)methyl)piperidine-4-carboxamide], for which the EC50 lay within 1000 to 10000 nM.

Take `Cc1cnn(C)c1-c1nc(N2CCC(F)(C(=O)N(O)Cc3cc(F)cc(F)c3)CC2)ncc1F` [Compound 17, N-(3,5-difluorobenzyl)-1-(4-(1,4-dimethyl-1H-pyrazol-5-yl)-5-fluoropyrimidin-2-yl)-4-fluoro-N-hydroxypiperidine-4-carboxamide]: the EC50 lay within 0.1 to 100 nM.

On to `Cc1ncc(CN(O)C(=O)C2CCN(c3ncc(F)c(-c4c(C)cnn4C)n3)CC2)s1` [Compound 24, 1-(4-(1,4-dimethyl-1H-pyrazol-5-yl)-5-fluoropyrimidin-2-yl)-N-hydroxy-N-((2-methylthiazol-5-yl)methyl)piperidine-4-carboxamide], for which the EC50 lay within 0.1 to 100 nM.

Consider `Cc1nc(CNC(=O)C2CCN(c3ncc(F)c(-c4c(C)cnn4C)n3)CC2)c(C)s1` [Compound 56, 1-(4-(1,4-dimethyl-1H-pyrazol-5-yl)-5-fluoropyrimidin-2-yl)-N-((2,5-dimethylthiazol-4-yl)methyl)piperidine-4-carboxamide], for which the concentration for a half-maximal effect (EC50) lay in the range of 0.1 to 100 nM.

In the case of `Cc1nc(C)n(-c2nc(N3CCC(C(=O)N(O)Cc4ncccc4F)CC3)ncc2F)n1` [Compound 13, 1-(4-(3,5-dimethyl-1H-1,2,4-triazol-1-yl)-5-fluoropyrimidin-2-yl)-N-((3-fluoropyridin-2-yl)methyl)-N-hydroxypiperidine-4-carboxamide], the EC50 lay in the range of 0.1 to 100 nM.
